Reference: the supplement of paper PMC4862054

Assays:
Details in all cases: incubation time: 72 h
BT-474 [1] = assay: normalised response (% of control), CellTox Green; higher = less cell death (100 = DMSO, 0 = benzethonium chloride kill control)
In short: (§1)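 Values are normalised signals, each belonging to one concentration of the series. Breast cancer cells (20 µl suspension) were seeded into 384-well plates with compound at 5 concentrations in 10-fold steps over a compound-specific 10,000-fold range and incubated 72 h. Readouts were CellTox Green fluorescence (485/520 nm), then CellTiter-Glo luminescence after 10 min at room temperature, with each plate set to 0.1 % DMSO as 100 and a positive kill control as 0.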

BT-549 [2] = assay: as above
In short: as §1

CAL-120 [3] = assay: as above
In short: as §1

CAL-148 [4] = assay: as above
In short: as §1

CAL-51 [5] = assay: as above
In short: as §1

CAL-85-1 [6] = assay: as above
In short: as §1

DU-4475 [7] = assay: as above
In short: as §1

HCC1143 [8] = assay: as above
In short: as §1

HCC1599 [9] = assay: as above
In short: as §1

HCC1937 [10] = assay: as above
In short: as §1

Hs578T [11] = assay: as above
In short: as §1

MCF-10A [12] = assay: as above
In short: as §1

MDA-MB-231 [13] = assay: as above
In short: as §1

MDA-MB-436 [14] = assay: as above
In short: as §1

MDA-MB-453 [15] = assay: as above
In short: as §1

MDA-MB-468 [16] = assay: as above
In short: as §1

MFM-223 [17] = assay: as above
In short: as §1

BT-474 [18] = assay: normalised response (% of control), CellTiter-Glo; higher = more viable cells (100 = DMSO, 0 = benzethonium chloride kill control)
Procedure: (§2)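 DSRT, 72 h incubation, CellTox Green / CellTiter-Glo readout. Signal is normalised to DMSO and benzethonium chloride controls. Value is the normalised response at the highest dose.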

BT-549 [19] = assay: as above
Procedure: as §2

CAL-120 [20] = assay: as above
Procedure: as §2

CAL-148 [21] = assay: as above
Procedure: as §2

CAL-51 [22] = assay: as above
Procedure: as §2

CAL-85-1 [23] = assay: as above
Procedure: as §2

DU-4475 [24] = assay: as above
Procedure: as §2

HCC1143 [25] = assay: as above
Procedure: as §2

HCC1599 [26] = assay: as above
Procedure: as §2

HCC1937 [27] = assay: as above
Procedure: as §2

HDQ-P1 [28] = assay: as above
Procedure: as §2

Hs578T [29] = assay: as above
Procedure: as §2

MCF-10A [30] = assay: as above
Procedure: as §2

MDA-MB-231 [31] = assay: as above
Procedure: as §2

MDA-MB-436 [32] = assay: as above
Procedure: as §2

MDA-MB-453 [33] = assay: as above
Procedure: as §2

MDA-MB-468 [34] = assay: as above
Procedure: as §2

MFM-223 [35] = assay: as above
Procedure: as §2

SK-BR-3 = assay: as above
Procedure: as §2

HDQ-P1 [36] = assay: normalised response (% of control), CellTox Green; higher = less cell death (100 = DMSO, 0 = benzethonium chloride kill control)
In short: as §1

Row | SMILES | normalised response (BT-474 [1]) | normalised response (BT-549 [2]) | normalised response (CAL-120 [3]) | normalised response (CAL-148 [4]) | normalised response (CAL-51 [5]) | normalised response (CAL-85-1 [6]) | normalised response (DU-4475 [7]) | normalised response (HCC1143 [8]) | normalised response (HCC1599 [9]) | normalised response (HCC1937 [10]) | normalised response (Hs578T [11]) | normalised response (MCF-10A [12]) | normalised response (MDA-MB-231 [13]) | normalised response (MDA-MB-436 [14]) | normalised response (MDA-MB-453 [15]) | normalised response (MDA-MB-468 [16]) | normalised response (MFM-223 [17]) | normalised response (BT-474 [18]) | normalised response (BT-549 [19]) | normalised response (CAL-120 [20]) | normalised response (CAL-148 [21]) | normalised response (CAL-51 [22]) | normalised response (CAL-85-1 [23]) | normalised response (DU-4475 [24]) | normalised response (HCC1143 [25]) | normalised response (HCC1599 [26]) | normalised response (HCC1937 [27]) | normalised response (HDQ-P1 [28]) | normalised response (Hs578T [29]) | normalised response (MCF-10A [30]) | normalised response (MDA-MB-231 [31]) | normalised response (MDA-MB-436 [32]) | normalised response (MDA-MB-453 [33]) | normalised response (MDA-MB-468 [34]) | normalised response (MFM-223 [35]) | normalised response (SK-BR-3) | normalised response (HDQ-P1 [36])
1 | O=S(=O)(c1cccc2cnccc12)N1CCCNCC1 [Fasudil] (50000 nM) | 99.3% | 97.4% | 93.2% | 97.8% | 116% | 80.6% | 95.4% | 99.4% | 80.3% | 79.6% | 118% | 87.7% | 50.6% | 94.4% | 101% | 90.6% | 102% | 67.5% | 78.9% | 67.1% | 96.3% | 117% | 111% | 86.3% | 83.7% | 96.6% | 96.5% | 89% | 86.7% | 78.3% | 70.1% | 90.2% | 79.6% | 93.6% | 88.2% | 57% | –
2 | c1cc(CN2CCCNCCNCCCNCC2)ccc1CN1CCCNCCNCCCNCC1 [Plerixafor] (10000 nM) | 99.7% | 52.3% | 95.2% | 98.5% | 85.7% | 117% | 92.3% | 101% | 98.2% | 104% | 102% | 94.2% | 96% | 95.5% | 80.5% | 69.7% | 96.9% | 90.9% | 107% | 108% | 91.8% | 124% | 96% | 88.6% | 102% | 99.8% | 97.3% | 98.2% | 92.3% | 82.6% | 94.2% | 97.9% | 78.3% | 106% | 87.2% | 79.1% | 104%
3 | CS(=O)(=O)N1CCN(Cc2cc3nc(-c4cccc5[nH]ncc45)nc(N4CCOCC4)c3s2)CC1 [Pictilisib] (10000 nM) | 47.1% | 102% | 105% | 47.1% | 48.2% | 50.2% | – | 120% | 103% | 91.4% | 98.8% | 79.4% | 118% | 116% | 92% | 155% | 56.4% | 50.6% | 25.6% | 34.3% | 15.6% | 8.84% | 27.8% | 81.4% | 26% | 64.9% | 32.3% | 19.9% | 31.3% | 18.4% | 48.8% | 43% | 13.4% | 26.4% | 28.2% | 22.2% | 85.4%
4 | Cc1cccc(-c2nn3c(c2-c2ccnc4ccc(C(N)=O)cc24)CCC3)n1 [Galunisertib] (1000 nM) | 103% | 109% | 99.3% | 105% | 98.5% | 68.4% | 108% | 127% | 112% | 116% | 112% | 103% | 127% | – | 98.8% | 121% | 102% | 99.6% | 95.7% | 105% | 118% | 91.8% | 110% | 108% | 105% | 108% | 101% | 105% | 106% | 90.8% | 98.3% | 112% | 106% | 101% | 108% | 116% | 108%
5 | CC/C(=C(\c1ccc(O)cc1)c1ccc(OCCN(C)C)cc1)c1ccccc1 [4-hydroxytamoxifen] (10000 nM) | 14.6% | 68% | 44.5% | 73.9% | 103% | 34% | 92% | 68% | 82.9% | -22.6% | – | 75.6% | 7.14% | 74.7% | 46.9% | -1140% | 91.1% | 63% | 62.7% | 76.5% | 85% | 60.5% | 44.9% | 84% | 88.6% | 66.5% | 25.4% | 73.1% | 80.8% | 81.4% | 41.1% | 35% | 34.4% | 13.8% | 45.5% | 49.8% | 81.4%
